Drawing on ChEMBL document CHEMBL3727363, “Imidazothiadiazole derivatives as protease activated receptor 4 (PAR4) inhibitors for treating platelet aggregation” (2013), this text covers IC50, inhibition and Activity for six compounds.

The target of experiment [1] is T1, Proteinase-activated receptor 4 (Homo sapiens, UniProt Q96RI0).
T1 sequence (Q96RI0 whole entry): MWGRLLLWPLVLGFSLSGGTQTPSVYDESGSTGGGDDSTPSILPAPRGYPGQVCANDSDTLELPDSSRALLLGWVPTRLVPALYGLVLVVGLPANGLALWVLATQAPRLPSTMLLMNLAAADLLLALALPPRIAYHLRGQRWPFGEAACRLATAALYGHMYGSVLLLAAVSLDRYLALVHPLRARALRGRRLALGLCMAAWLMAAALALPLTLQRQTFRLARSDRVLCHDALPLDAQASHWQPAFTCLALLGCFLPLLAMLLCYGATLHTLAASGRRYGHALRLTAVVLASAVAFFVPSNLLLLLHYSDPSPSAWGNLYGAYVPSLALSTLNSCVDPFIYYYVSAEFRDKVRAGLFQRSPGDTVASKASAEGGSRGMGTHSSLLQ
In words: Antagonist activity against human PAR4 expressed in HEK293 cells assessed as reduction in H-Ala-Phe(4-F)-Pro-Gly-Trp-Leu-Val-Lys-Asn-Gly-NH2-induced intracellular calcium mobilization incubated for 30 mins before agonist addition by FLIPR assay. The experiment is classed as functional, cell-based. A general note: Calcium assays in cells follow changes in intracellular calcium, usually with a dye or a luminescent sensor.

Experiment [2] deals with T2, Proteinase-activated receptor 4 (Homo sapiens) (UniProt Q96RI0).
T2 sequence (whole entry): T1 sequence (Q96RI0 whole entry)
In words: Antagonist activity against PAR4 in washed human platelets assessed as inhibition of 5 nM alpha-thrombin-induced platelet aggregation pre-incubated for 5 mins before alpha-thrombin addition by optical aggregometry. The experiment is classed as functional.

In experiment [3] the target is T2, Proteinase-activated receptor 4 (Homo sapiens). The experiment in a line: Antagonist activity against PAR4 in washed human platelets assessed as inhibition of […] alpha-thrombin-induced platelet aggregation pre-incubated for 5 mins before alpha-thrombin addition by optical aggregometry. The format is functional.
Experiment [4] has as its system Cynomolgus monkey. The experiment in a line: Antithrombotic activity in cynomolgus monkey model of electrolytic injury-induced carotid artery thrombosis assessed as reduction in thrombosis-induced occlusion by measuring thrombus weight at 10 mg/kg, po dosed 1 to 2 hrs before test. Further details: scale not given: the % may be the effect or the level left. The format is functional, Macaca fascicularis.

In experiment [5] the test system is Cynomolgus monkey. The experiment in a line: Antithrombotic activity in cynomolgus monkey model of electrolytic injury-induced carotid artery thrombosis assessed as reduction in thrombosis-induced occlusion by measuring thrombus weight at 0.4 mg/kg, po dosed 1 to 2 hrs before test. The experiment is classed as functional, Macaca fascicularis. Further details: scale not given: the % may be the effect or the level left.

Experiment [6] relates to Cynomolgus monkey. In words: Antithrombotic activity in cynomolgus monkey model of electrolytic injury-induced carotid artery thrombosis assessed as reduction in thrombosis-induced occlusion by measuring thrombus weight at 2 mg/kg, po dosed 1 to 2 hrs before test. Further details: scale not given: the % may be the effect or the level left. The format is functional, Macaca fascicularis.

The IC50 is the midpoint of a concentration-inhibition curve. Turning to `COc1cc(OCc2cccc(OCc3ccc(OC)c(C)c3C)c2)c2cc(-c3cn4nc(OC)sc4n3)oc2c1`, the IC50 in experiment [1] stood at 5.49 nM. Turning to `COc1nn2cc(-c3cc4ccc([N+](=O)[O-])cc4o3)nc2s1`, in experiment [1], the IC50 was 38.2 nM. Take `COc1cc(OCc2ccccc2)c2cc(-c3cn4nc(OC)sc4n3)oc2c1`: the inhibition result in experiment [2] and in experiment [3] was “Dose-dependent effect” each time.

In the case of `COc1cc(OCc2cccc(OCc3ccccc3)c2)c2cc(-c3cn4nc(OC)sc4n3)oc2c1`, the values for the Activity in the experiment with Cynomolgus monkey [4], in the experiment on Cynomolgus monkey [5] and in the experiment on Cynomolgus monkey [6] were -38%, -9% and -38%, respectively.

Take `CSc1nn2cc(-c3cc4c(C(F)(F)F)cc(C)nc4o3)nc2s1`: the IC50 in experiment [1] came to 8.15 nM. With `COc1cccc2oc(-c3cn4nc(SC)sc4n3)cc12`, the IC50 in experiment [1] amounted to 11.1 nM.
